Test results published in PubChem BioAssay AID1259407 (Chemical Carcinogenesis Research Information System (CCRIS), 2018).
Calls of active or inactive are those of the source. No rule for the calls is given here.

System: CCRIS mutagenicity, Ames/micronucleus/aberration tests
Assay: CCRIS mutagenicity studies
[1] = Test System: AMES SALMONELLA TYPHIMURIUM, Strain/Indicator: TA98, Metabolic Activation: NONE, Method: PREINCUBATION
[2] = Test System: AMES SALMONELLA TYPHIMURIUM, Strain/Indicator: TA98, Metabolic Activation: NONE, Method: STANDARD PLATE
[3] = Test System: AMES SALMONELLA TYPHIMURIUM, Strain/Indicator: TA98, Metabolic Activation: RAT, LIVER, S-9, AROCLOR 1254, Method: STANDARD PLATE
[4] = Test System: AMES SALMONELLA TYPHIMURIUM, Strain/Indicator: TA100, Metabolic Activation: NONE, Method: PREINCUBATION
[5] = Test System: AMES SALMONELLA TYPHIMURIUM, Strain/Indicator: TA100, Metabolic Activation: NONE, Method: STANDARD PLATE
[6] = Test System: AMES SALMONELLA TYPHIMURIUM, Strain/Indicator: TA100, Metabolic Activation: RAT, LIVER, S-9, AROCLOR 1254, Method: STANDARD PLATE
[7] = Test System: AMES SALMONELLA TYPHIMURIUM, Strain/Indicator: TA1535, Metabolic Activation: NONE, Method: PREINCUBATION
[8] = Test System: AMES SALMONELLA TYPHIMURIUM, Strain/Indicator: TA1537, Metabolic Activation: NONE, Method: PREINCUBATION

Structure (SMILES): CCN1CCN(C(=O)N[C@@H](C(=O)N[C@@H]2C(=O)N3[C@@H]2SC(C)(C)[C@@H]3C(=O)O)c2ccccc2)C(=O)C1=O
- mutagenic call (Test System: AMES SALMONELLA TYPHIMURIUM, Strain/Indicator: TA98, Metabolic Activation: MOUSE, IN VIVO, Method: HOST-MEDIATED): inactive; negative
- mutagenic call [1]: inactive; negative
- mutagenic call [2]: inactive; negative
- mutagenic call [3]: inactive; negative
- mutagenic call (Test System: AMES SALMONELLA TYPHIMURIUM, Strain/Indicator: TA98, Metabolic Activation: S-9, Method: PREINCUBATION): inactive; negative
- mutagenic call (Test System: AMES SALMONELLA TYPHIMURIUM, Strain/Indicator: TA100, Metabolic Activation: MOUSE, IN VIVO, Method: HOST-MEDIATED): inactive; negative
- mutagenic call [4]: inactive; negative
- mutagenic call [5]: inactive; negative
- mutagenic call [6]: inactive; negative
- mutagenic call (Test System: AMES SALMONELLA TYPHIMURIUM, Strain/Indicator: TA100, Metabolic Activation: S-9, Method: PREINCUBATION): inactive; negative
- mutagenic call (Test System: AMES SALMONELLA TYPHIMURIUM, Strain/Indicator: TA1535, Metabolic Activation: MOUSE, IN VIVO, Method: HOST-MEDIATED): inactive; negative
- mutagenic call [7]: inactive; negative
- mutagenic call (Test System: AMES SALMONELLA TYPHIMURIUM, Strain/Indicator: TA1535, Metabolic Activation: NONE, Method: STANDARD PLATE): inactive; negative
- mutagenic call (Test System: AMES SALMONELLA TYPHIMURIUM, Strain/Indicator: TA1535, Metabolic Activation: RAT, LIVER, S-9, AROCLOR 1254, Method: STANDARD PLATE): inactive; negative
- mutagenic call (Test System: AMES SALMONELLA TYPHIMURIUM, Strain/Indicator: TA1535, Metabolic Activation: S-9, Method: PREINCUBATION): inactive; negative
- mutagenic call (Test System: AMES SALMONELLA TYPHIMURIUM, Strain/Indicator: TA1537, Metabolic Activation: MOUSE, IN VIVO, Method: HOST-MEDIATED): inactive; negative
- mutagenic call [8]: inactive; negative
- mutagenic call (Test System: AMES SALMONELLA TYPHIMURIUM, Strain/Indicator: TA1537, Metabolic Activation: NONE, Method: STANDARD PLATE): inactive; negative
- mutagenic call (Test System: AMES SALMONELLA TYPHIMURIUM, Strain/Indicator: TA1537, Metabolic Activation: RAT, LIVER, S-9, AROCLOR 1254, Method: STANDARD PLATE): inactive; negative
- mutagenic call (Test System: AMES SALMONELLA TYPHIMURIUM, Strain/Indicator: TA1537, Metabolic Activation: S-9, Method: PREINCUBATION): inactive; negative
- mutagenic call (Test System: AMES SALMONELLA TYPHIMURIUM, Strain/Indicator: TA1538, Metabolic Activation: NONE, Method: STANDARD PLATE): inactive; negative
- mutagenic call (Test System: AMES SALMONELLA TYPHIMURIUM, Strain/Indicator: TA1538, Metabolic Activation: RAT, LIVER, S-9, AROCLOR 1254, Method: STANDARD PLATE): inactive; negative
- mutagenic call (Test System: E. COLI, Strain/Indicator: WP2 UVRA, Metabolic Activation: NONE, Method: PREINCUBATION): inactive; negative
- mutagenic call (Test System: E. COLI, Strain/Indicator: WP2 UVRA, Metabolic Activation: NONE, Method: STANDARD PLATE): inactive; negative
- mutagenic call (Test System: E. COLI, Strain/Indicator: WP2 UVRA, Metabolic Activation: RAT, LIVER, S-9, AROCLOR 1254, Method: STANDARD PLATE): inactive; negative
- mutagenic call (Test System: E. COLI, Strain/Indicator: WP2 UVRA, Metabolic Activation: S-9, Method: PREINCUBATION): inactive; negative

Structure (SMILES): [CH3][Pb]([CH3])([CH3])[CH3]
- mutagenic call (Test System: AMES SALMONELLA TYPHIMURIUM, Strain/Indicator: TA98, Metabolic Activation: HAMSTER, LIVER, S-9, AROCLOR 1254, Method: PREINCUBATION): inactive; negative
- mutagenic call [1]: inactive; negative
- mutagenic call (Test System: AMES SALMONELLA TYPHIMURIUM, Strain/Indicator: TA98, Metabolic Activation: RAT, LIVER, S-9, AROCLOR 1254, Method: PREINCUBATION): inactive; negative
- mutagenic call (Test System: AMES SALMONELLA TYPHIMURIUM, Strain/Indicator: TA100, Metabolic Activation: HAMSTER, LIVER, S-9, AROCLOR 1254, Method: PREINCUBATION): inactive; negative
- mutagenic call [4]: inactive; negative
- mutagenic call (Test System: AMES SALMONELLA TYPHIMURIUM, Strain/Indicator: TA100, Metabolic Activation: RAT, LIVER, S-9, AROCLOR 1254, Method: PREINCUBATION): inactive; negative
- mutagenic call (Test System: AMES SALMONELLA TYPHIMURIUM, Strain/Indicator: TA1535, Metabolic Activation: HAMSTER, LIVER, S-9, AROCLOR 1254, Method: PREINCUBATION): inactive; negative
- mutagenic call [7]: inactive; negative
- mutagenic call (Test System: AMES SALMONELLA TYPHIMURIUM, Strain/Indicator: TA1535, Metabolic Activation: RAT, LIVER, S-9, AROCLOR 1254, Method: PREINCUBATION): inactive; negative
- mutagenic call (Test System: AMES SALMONELLA TYPHIMURIUM, Strain/Indicator: TA1537, Metabolic Activation: HAMSTER, LIVER, S-9, AROCLOR 1254, Method: PREINCUBATION): inactive; negative
- mutagenic call [8]: inactive; negative
- mutagenic call (Test System: AMES SALMONELLA TYPHIMURIUM, Strain/Indicator: TA1537, Metabolic Activation: RAT, LIVER, S-9, AROCLOR 1254, Method: PREINCUBATION): inactive; negative

Structure (SMILES): CN(C)C=O
- mutagenic call (Test System: AMES SALMONELLA TYPHIMURIUM, Strain/Indicator: TA97, Metabolic Activation: NONE, Method: STANDARD PLATE): inactive; negative
- mutagenic call (Test System: AMES SALMONELLA TYPHIMURIUM, Strain/Indicator: TA97, Metabolic Activation: RAT, LIVER, S-9, AROCLOR 1254, Method: STANDARD PLATE): inactive; negative
- mutagenic call [2]: inactive; negative
- mutagenic call [3]: inactive; negative
- mutagenic call [5]: inactive; negative
- mutagenic call [6]: inactive; negative
- mutagenic call (Test System: Ames Salmonella typhimurium, Strain/Indicator: TA98, Metabolic Activation: None, Method: Gas exposure method): inactive; negative
- mutagenic call (Test System: Ames Salmonella typhimurium, Strain/Indicator: TA98, Metabolic Activation: Rat, Liver, S9, Sodium phenobarbital and 5,6-benzoflavone (10%), Method: Gas exposure method): inactive; negative
- mutagenic call (Test System: Ames Salmonella typhimurium, Strain/Indicator: TA100, Metabolic Activation: None, Method: Gas exposure method): inactive; negative
- mutagenic call (Test System: Ames Salmonella typhimurium, Strain/Indicator: TA100, Metabolic Activation: Rat, Liver, S9, Sodium phenobarbital and 5,6-benzoflavone (10%), Method: Gas exposure method): inactive; negative
- mutagenic call (Test System: Ames Salmonella typhimurium, Strain/Indicator: TA1535, Metabolic Activation: None, Method: Gas exposure method): inactive; negative
- mutagenic call (Test System: Ames Salmonella typhimurium, Strain/Indicator: TA1535, Metabolic Activation: Rat, Liver, S9, Sodium phenobarbital and 5,6-benzoflavone (10%), Method: Gas exposure method): inactive; negative
- mutagenic call (Test System: Ames Salmonella typhimurium, Strain/Indicator: TA1537, Metabolic Activation: None, Method: Gas exposure method): inactive; negative
- mutagenic call (Test System: Ames Salmonella typhimurium, Strain/Indicator: TA1537, Metabolic Activation: Rat, Liver, S9, Sodium phenobarbital and 5,6-benzoflavone (10%), Method: Gas exposure method): inactive; negative
- mutagenic call (Test System: E. coli, Strain/Indicator: WP2uvrA/pKM101, Metabolic Activation: None, Method: Gas exposure method): inactive; negative
- mutagenic call (Test System: E. coli, Strain/Indicator: WP2uvrA/pKM101, Metabolic Activation: Rat, Liver, S9, Sodium phenobarbital and 5,6-benzoflavone (10%), Method: Gas exposure method): inactive; negative
- mutagenic call (Test System: MOUSE LYMPHOMA, Strain/Indicator: L5178Y (TK+/TK-), Metabolic Activation: NONE, Method: SUSPENSION/PLATE): inactive; negative
- mutagenic call (Test System: MOUSE LYMPHOMA, Strain/Indicator: L5178Y (TK+/TK-), Metabolic Activation: RAT, LIVER, S-9, AROCLOR 1254, Method: SUSPENSION/PLATE): inactive; negative
- mutagenic call (Test System: MOUSE LYMPHOMA, Strain/Indicator: L5178Y (TK+/TK-), Metabolic Activation: RAT, LIVER, S-9, Method: SUSPENSION/PLATE): inactive; negative

Structure (SMILES): O=[N+]([O-])c1cc2[nH]c3ccc4ccccc4c3c2c2cc(O)ccc12
- mutagenic call [2]: inactive; negative
- mutagenic call (Test System: AMES SALMONELLA TYPHIMURIUM, Strain/Indicator: TA98, Metabolic Activation: RAT, LIVER, S-9, 3-METHYLCHOLANTHRENE, Method: STANDARD PLATE): active; positive
- mutagenic call [5]: active; positive
- mutagenic call (Test System: AMES SALMONELLA TYPHIMURIUM, Strain/Indicator: TA100, Metabolic Activation: RAT, LIVER, S-9, 3-METHYLCHOLANTHRENE, Method: STANDARD PLATE): active; positive
